Holding throughout (experiment): ≥ marks a high value that may be exact or a test limit, other limits are often not marked, values filed in µg/mL are converted to µM
Experiment [1] deals with Erwinia amylovora PMV 6076.
In experiment [2] the test system is Pseudomonas syringae pv. actinidiae Psa3700.1.1.
Experiment [3] deals with Pseudomonas syringae pv. syringae EPS 94.
For experiment [4], the system named is Xanthomonas arboricola pv. pruni CFBP 5563.
Experiment [5] has as its system Xanthomonas campestris pv. Vesicatoria 2133-2.
For experiment [6], the system named is Xanthomonas fragariae Xf349-9A.
Experiment [7] concerns Escherichia coli ATCC 25922.
In experiment [8] the test system is Klebsiella pneumoniae ATCC 13883.
Experiment [9] has as its system Listeria monocytogenes ATCC 19115.
Experiment [10] concerns Salmonella enterica subsp. enterica serovar Enteritidis ATCC 13076.
For experiment [11], the system named is Staphylococcus aureus ATCC 25923.
The test system of experiment [12] is Staphylococcus aureus ATCC 43300.
In experiment [13] the test system is Staphylococcus aureus ATCC BAA-39.
Experiment [14] has as its system Acinetobacter sp. DSM 586.
In experiment [15] the test system is Arthrobacter globiformis VKM Ac-1112.
Experiment [16] has as its system Bacillus subtilis VKM B-501.
Experiment [17] has as its system Bacillus subtilis subsp. spizizenii DSM 347.
For experiment [18], the system named is Escherichia coli DH5alpha.
For experiment [19], the system named is Escherichia coli DSM 1116.
Experiment [20] has as its system Escherichia coli K-12.
Experiment [21] concerns Escherichia coli MH1.
The subject of experiment [22] is Pseudomonas aeruginosa PAO1.
The test system of experiment [23] is Saccharomyces cerevisiae Y190.
Experiment [24] deals with Staphylococcus aureus USA 300.
For experiment [25], the system named is Staphylococcus xylosus DSM 20267.
In experiment [26] the test system is Cupriavidus necator H16.
Experiment [27] concerns Escherichia coli BL21(DE3).
Experiment [28] deals with Escherichia coli JM109.
The test system of experiment [29] is Pseudomonas putida GPp104.
Experiment [30] relates to Pseudomonas aeruginosa ATCC 27853.
Experiment [31] concerns Staphylococcus aureus ATCC 33591.
Experiment [32] concerns Staphylococcus epidermidis ATCC 35984.
Experiment [33] concerns Bacillus subtilis ATCC 23857.
Experiment [34] relates to Bacillus megaterium.
Experiment [35] relates to Staphylococcus aureus.

≈ marks a conversion by molar mass, not a printed value. Where “and” joins values, the source holds several entries; their conditions need not be identical. Identical values can stand only once. Some results are limits rather than exact numbers.

In the case of `CC(C)C[C@H](NC(=O)[C@H](CCCN=C(N)N)NC(=O)[C@H](CC(N)=O)NC(=O)[C@H](CCCCN)NC(=O)[C@H](CCC(=O)O)NC(=O)[C@H](CCC(=O)O)NC(=O)[C@H](CCC(=O)O)NC(=O)[C@@H](NC(=O)[C@H](CC(C)C)NC(=O)[C@H](CCCCN)NC(=O)[C@@H](NC(=O)[C@H](CCCCN)NC(=O)[C@H](CCCCN)NC(=O)[C@@H](N)[C@@H](C)O)[C@@H](C)O)[C@@H](C)O)C(N)=O` [TKKTKLTEEEKNRL], the MIC in experiment [1], in experiment [2], in experiment [3], in experiment [4], in experiment [5] and in [6] was no less than 50 µM in each case.
In the case of `CC[C@H](C)[C@H](NC(=O)[C@@H](NC(=O)[C@@H](NC(=O)[C@@H](NC(=O)[C@@H](NC(=O)[C@H](CCCCN)NC(=O)[C@@H]1CCCN1C(=O)[C@H](CCCN=C(N)N)NC(=O)[C@H](Cc1ccccc1)NC(=O)[C@H](CCCN=C(N)N)NC(=O)[C@@H](N)CCCN=C(N)N)C(C)C)[C@@H](C)O)[C@@H](C)CC)[C@@H](C)O)C(=O)N[C@@H](CCC(N)=O)C(=O)NCC(=O)N[C@@H](CO)C(=O)N[C@@H](C)C(=O)N[C@@H](CCCN=C(N)N)C(=O)N[C@@H](Cc1ccccc1)C(=O)O` [RRFRPKVTITIQGSARF], the MIC in [7] is 5.66 µM and 8 µM; in experiment [8] it was 4 µM (≈ 8.13 µg/mL); in [9] it was 2.83 µM and 4 µM; in experiment [10], 4 µM (≈ 8.13 µg/mL); in experiment [11], 2.83 µM and 4 µM; in experiment [12], 2 µM and 4 µM. In addition, the MIC in experiment [13] is 4 µM (≈ 8.13 µg/mL).
Take `CC[C@H](C)[C@H](NC(=O)[C@H](CCCCN)NC(=O)[C@H](CCCN=C(N)N)NC(=O)[C@H](CC(C)C)NC(=O)[C@H](Cc1ccccc1)NC(=O)[C@H](CCCN=C(N)N)NC(=O)CNC(=O)[C@H](Cc1ccccc1)NC(=O)[C@H](CCCN=C(N)N)NC(=O)CNC(=O)[C@H](CCCN=C(N)N)NC(=O)[C@H](CCC(N)=O)NC(=O)[C@@H](NC(=O)[C@@H](N)CC(C)C)C(C)C)C(=O)N[C@@H](CCCN=C(N)N)C(=O)O` [LVQRGRFGRFLRKIR]: the MIC in experiment [7] is 16 µM (≈ 30.4 µg/mL); in experiment [8], 8 µM and 16 µM; in experiment [9] it was 5.66 µM and 11.3 µM; in experiment [10], 4 µM and 5.66 µM; in experiment [11] it was 8 µM and 16 µM; in experiment [12] it was 5.66 µM and 16 µM. The MIC in experiment [13] was 5.66 µM and 16 µM.
Consider `CSCC[C@H](NC(=O)[C@H](CO)NC(=O)[C@H](CCCCN)NC(=O)[C@H](Cc1c[nH]c2ccccc12)NC(=O)[C@@H](N)CO)C(=O)N[C@@H](C)C(=O)N[C@@H](CCCCN)C(=O)N[C@@H](CCCCN)C(=O)N[C@@H](CC(C)C)C(=O)N[C@@H](CCCCN)C(=O)N[C@@H](CCC(=O)O)C(=O)N[C@@H](Cc1ccc(O)cc1)C(=O)N[C@@H](CCSC)C(=O)N[C@@H](CCC(=O)O)C(=O)N[C@@H](CCCCN)C(=O)N[C@@H](CC(C)C)C(=O)N[C@@H](CCCCN)C(=O)N[C@@H](CCC(N)=O)C(=O)N[C@@H](CCCNC(=N)N)C(=O)N[C@@H](C)C(=O)O` [SWKSMAKKLKEYMEKLKQRA], for which the MIC was 3.22 µM (≈ 8 µg/mL) in experiment [14]; 0.3 µM (≈ 0.745 µg/mL) in experiment [15]; 1.2 µM (≈ 2.98 µg/mL) in [16]; 6.44 µM (≈ 16 µg/mL) in experiment [17]; 40.3 µM (≈ 100 µg/mL) in experiment [7]; 2.5 µM (≈ 6.21 µg/mL) in [18]. The MIC was 3.22 µM (≈ 8 µg/mL) in experiment [19]; no less than 100 µM in experiment [20]; 6 µM (≈ 14.9 µg/mL) in experiment [21]; greater than 40 µM in [22]; 20 µM (≈ 49.7 µg/mL) in experiment [23]; 33.8 µM (≈ 84 µg/mL) in experiment [11]. In addition, the MIC in experiment [24] was no less than 100 µM; in experiment [25], 3.22 µM (≈ 8 µg/mL).
On to `CC[C@H](C)[C@H](NC(=O)[C@H](Cc1ccc(O)cc1)NC(=O)[C@@H](NC(=O)[C@@H]1CCCN1C(=O)[C@H](CCCN=C(N)N)NC(=O)[C@@H](NC(=O)CNC(=O)[C@@H](N)CCCN=C(N)N)C(C)C)C(C)C)C(=O)N1CCC[C@H]1C(=O)N[C@@H](CCC(N)=O)C(=O)N1CCC[C@H]1C(=O)N[C@@H](CCCN=C(N)N)C(=O)N1CCC[C@H]1C(=O)N1CCC[C@H]1C(=O)N[C@@H](Cc1cnc[nH]1)C(=O)N1CCC[C@H]1C(=O)N[C@@H](CCCN=C(N)N)C(=O)N[C@@H](CC(C)C)C(=O)O` [RGVRPVYIPQPRPPHPRL], for which the minimal inhibitory concentration (MIC) in experiment [26] was 25 µM (≈ 53.4 µg/mL); in experiment [27], 0.313 µM (≈ 0.668 µg/mL); in experiment [28] it was 6.25 µM (≈ 13.3 µg/mL); in [29], 6.25 µM (≈ 13.3 µg/mL).
Take `CC[C@H](C)[C@H](NC(=O)CN)C(=O)NCC(=O)N[C@@H](CCCCN)C(=O)N[C@@H](Cc1ccccc1)C(=O)N[C@@H](CC(C)C)C(=O)N[C@@H](CCCCN)C(=O)N[C@@H](CCCCN)C(=O)N[C@@H](C)C(=O)N[C@@H](CCCCN)C(=O)N[C@@H](CCCCN)C(=O)N[C@@H](Cc1ccccc1)C(N)=O` [GIGKFLKKAKKF]: the MIC in experiment [30] is 4.15 µM (≈ 5.65 µg/mL); in experiment [11], 375 µM (≈ 512 µg/mL); in [31] it was no less than 375 µM; in experiment [32], no less than 33.2 µM.
With `CC[C@H](C)[C@H](NC(=O)[C@H](C)NC(=O)[C@@H](N)CCSC)C(=O)N[C@H](C(=O)NCC(=O)N[C@H](C(=O)N[C@H](C(=O)N[C@H](C(=O)N[C@@H](CCCCN)C(=O)N[C@H](C(=O)N[C@H](C(=O)N[C@@H](CCCCN)C(=O)N[C@@H](C)C(=O)N[C@H](C(=O)N[C@H](C(=O)N[C@@H](CC(=O)O)C(=O)N[C@H](C(=O)N[C@@H](Cc1ccccc1)C(=O)N[C@@H](C)C(=O)N[C@@H](CCCCN)C(=O)O)[C@@H](C)CC)[C@@H](C)CC)[C@@H](C)CC)[C@@H](C)CC)[C@@H](C)CC)[C@@H](C)CC)[C@@H](C)CC)[C@@H](C)O)C(C)C` [MAIVGTIIKIIKAIIDIFAK], the MIC in [33] was no less than 128 µM; in experiment [7], greater than 128 µM; in experiment [24], no less than 64 µM; in experiment [32] it was no less than 64 µM.
Consider `CC[C@H](C)[C@H](NC(=O)[C@H](Cc1cnc[nH]1)NC(=O)[C@@H]1CCCN1C(=O)[C@@H](NC(=O)[C@H](CC(C)C)NC(=O)[C@H](CO)NC(=O)[C@H](CC(C)C)NC(=O)[C@@H](N)Cc1ccccc1)[C@@H](C)CC)C(=O)N[C@H](C(=O)N[C@@H](CO)C(=O)NCC(=O)N[C@H](C(=O)N[C@@H](C)C(=O)N[C@@H](C)C(=O)N[C@@H](CC(C)C)C(=O)N[C@@H](C)C(=O)N[C@@H](CCCCN)C(=O)N[C@@H](Cc1cnc[nH]1)C(=O)N[C@@H](CC(C)C)C(=O)NCC(=O)O)C(C)C)C(C)C` [FLSLIPHIVSGVAALAKHLG], for which the MIC stood at 3.1 µM (≈ 6.33 µg/mL) in [34] and 12.5 µM (≈ 25.5 µg/mL) in [35].

(Values after DBAASP.)
